Measured values taken from the supplement of paper PMC10307832.

How the values were obtained:
Test in all cases: relative viability (nuclei count vs DMSO), 5 days (fraction); higher = more cells survive
Cabozantinib + Olaparib = compound: COc1cc2nccc(Oc3ccc(NC(=O)C4(C(=O)Nc5ccc(F)cc5)CC4)cc3)c2cc1OC [Cabozantinib] + O=C(c1cc(Cc2n[nH]c(=O)c3ccccc23)ccc1F)N1CCN(C(=O)C2CC2)CC1 [Olaparib] (partner 8 µM)
Procedure, shortened: (§1)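 A single step with final 0.05% Triton X-100, 1% formaldehyde and 1 ug/ml Hoechst fixed the cells and stained nuclei 5 days after treatment. Lung cancer cell lines in 1536-well plates had been treated by pin tool the day after seeding with one drug alone or a fixed anchor-drug dose plus five library-drug doses (not always all listed) in √10 steps, and nuclei were counted on 4× images. Relative viability is the ratio of nuclei in treated wells to nuclei in vehicle wells, taken as the median of duplicate plates.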

Zosuquidar + Decitabine = compound: O[C@@H](COc1cccc2ncccc12)CN1CCN([C@@H]2c3ccccc3[C@@H]3[C@H](c4ccccc42)C3(F)F)CC1 [Zosuquidar] + Nc1ncn([C@H]2C[C@H](O)[C@@H](CO)O2)c(=O)n1 [Decitabine] (partner 2 µM)
Procedure, shortened: as §1

Zosuquidar + Lapatinib = compound: O[C@@H](COc1cccc2ncccc12)CN1CCN([C@@H]2c3ccccc3[C@@H]3[C@H](c4ccccc42)C3(F)F)CC1 [Zosuquidar] + CS(=O)(=O)CCNCc1ccc(-c2ccc3ncnc(Nc4ccc(OCc5cccc(F)c5)c(Cl)c4)c3c2)o1 [Lapatinib] (partner 2 µM)
Procedure, shortened: as §1

[1] = compound: COc1cc2nccc(Oc3ccc(NC(=O)C4(C(=O)Nc5ccc(F)cc5)CC4)cc3)c2cc1OC [Cabozantinib] + CCNC(=O)c1noc(-c2cc(C(C)C)c(O)cc2O)c1-c1ccc(CN2CCOCC2)cc1 [Luminespib] (partner 0.01 µM)
Procedure, shortened: as §1

Cell Line | relative viability (Cabozantinib + Olaparib; first compound 0.06325 µM) | relative viability (Cabozantinib + Olaparib; first compound 0.2 µM) | relative viability (Cabozantinib + Olaparib; first compound 0.6325 µM) | relative viability (Cabozantinib + Olaparib; first compound 2 µM) | relative viability (Zosuquidar + Decitabine; first compound 0.01 µM) | relative viability (Zosuquidar + Decitabine; first compound 0.1 µM) | relative viability (Zosuquidar + Decitabine; first compound 0.3162 µM) | relative viability (Zosuquidar + Decitabine; first compound 1 µM) | relative viability (Zosuquidar + Lapatinib; first compound 0.01 µM) | relative viability (Zosuquidar + Lapatinib; first compound 0.03162 µM) | relative viability (Zosuquidar + Lapatinib; first compound 0.1 µM) | relative viability (Zosuquidar + Lapatinib; first compound 0.3162 µM) | relative viability (Zosuquidar + Lapatinib; first compound 1 µM) | relative viability ([1]; first compound 0.06325 µM) | relative viability ([1]; first compound 0.2 µM) | relative viability ([1]; first compound 0.6325 µM) | relative viability ([1]; first compound 2 µM) | relative viability (Cabozantinib + Olaparib; first compound 0.02 µM) | relative viability (Zosuquidar + Decitabine; first compound 0.03162 µM) | relative viability ([1]; first compound 0.02 µM)
NCI-H23 | 0.386 | 0.345 | 0.304 | 0.348 | 0.29 | 0.306 | 0.302 | 0.324 | 1.15 | 1.16 | 1.38 | 1.23 | 1.15 | 0.218 | 0.199 | 0.229 | 0.205 | – | – | –
NCI-H322M | 0.902 | 0.695 | 0.781 | 0.675 | 0.598 | 0.666 | 0.632 | 0.625 | 0.552 | 0.63 | 0.417 | 0.582 | 0.567 | 1.14 | 0.817 | 0.969 | 0.941 | 0.831 | 0.548 | 0.922
NCI-H358 | 0.625 | 0.565 | 0.529 | 0.591 | 0.23 | 0.214 | 0.255 | 0.19 | 0.475 | 0.415 | 0.366 | 0.55 | 0.492 | 0.549 | – | 0.322 | 0.136 | 0.708 | 0.194 | –
NCI-H460 | 0.492 | 0.445 | 0.46 | 0.422 | 0.459 | 0.335 | 0.55 | 0.44 | 0.927 | 1 | 0.983 | 0.977 | 1.04 | 0.0334 | 0.0334 | 0.0351 | 0.0448 | 0.443 | 0.448 | 0.0282
NCI-H520 | 0.341 | 0.386 | 0.42 | 0.228 | 0.505 | 0.395 | 0.472 | 0.47 | 0.878 | 0.827 | 0.569 | 0.855 | 0.982 | 0.198 | 0.249 | 0.237 | 0.189 | 0.369 | 0.523 | 0.257
NCI-H596 | 0.768 | 0.756 | 0.7 | 0.793 | 1.02 | 1.03 | 1.13 | 0.879 | 1.11 | 1.07 | 1.08 | 1.13 | 1.13 | 1.26 | 1.02 | 1.08 | 0.907 | 0.75 | 0.961 | 0.905
NCI-H647 | 0.656 | 0.523 | 0.537 | 0.51 | 0.396 | 0.429 | 0.378 | 0.318 | 1.04 | 1.13 | 1.03 | 1.13 | 1.14 | 0.138 | 0.264 | 0.251 | 0.368 | 0.715 | 0.444 | 0.155
NCI-H650 | 0.373 | 0.398 | 0.386 | 0.35 | 0.292 | 0.387 | 0.398 | 0.376 | 0.845 | 0.879 | – | 1.49 | 0.881 | 0.784 | 0.952 | 0.751 | 0.724 | 0.38 | 0.369 | –
NCI-H661 | 0.79 | 0.779 | 0.875 | 0.825 | 0.557 | 0.595 | 0.516 | 0.523 | 0.6 | 0.423 | 0.399 | 0.639 | 0.559 | 0.929 | 1.01 | 0.957 | 0.938 | 0.786 | 0.54 | 0.904
NCI-H727 | 0.828 | 0.632 | 0.907 | 0.606 | 0.823 | – | 0.794 | 0.887 | 0.846 | 0.795 | 0.748 | 1.02 | 0.94 | 0.453 | 0.643 | 0.362 | 0.312 | 0.769 | 0.906 | 0.285
NCI-H838 | 0.836 | 0.774 | 0.699 | 0.662 | 0.488 | 0.486 | 0.496 | 0.502 | 1.04 | 0.765 | 0.858 | 1.18 | 1.06 | 0.342 | 0.3 | 0.259 | 0.34 | 0.847 | 0.49 | 0.369
NCI-H1355 | 0.747 | 0.775 | 0.771 | 0.714 | 0.388 | 0.355 | 0.382 | 0.401 | 0.993 | 1 | 0.759 | 1.11 | 1 | 0.852 | 0.682 | 0.738 | 0.871 | 0.748 | 0.393 | 0.806
NCI-H1395 | 0.466 | 0.497 | 0.46 | 0.454 | 0.707 | – | 0.765 | 0.773 | 1.03 | 0.903 | 0.957 | 1.54 | 1.04 | 0.978 | 0.873 | 0.619 | 0.547 | 0.439 | 0.765 | 0.744
NCI-H1437 | 0.633 | 0.655 | 0.615 | 0.607 | 0.567 | 0.644 | 0.56 | 0.592 | 0.825 | 0.669 | 0.747 | 0.908 | 0.792 | 1.14 | 1.13 | 1.09 | 1 | 0.656 | 0.561 | 1.14
NCI-H1650 | 0.958 | 0.713 | 0.753 | 0.809 | 0.451 | 0.553 | 0.398 | 0.378 | 0.783 | 0.696 | 0.684 | 1.22 | 0.875 | 0.202 | 0.185 | 0.185 | 0.169 | 0.831 | 0.439 | 0.187
NCI-H1651 | 0.196 | 0.202 | 0.184 | 0.192 | 0.644 | 0.483 | 0.617 | 0.588 | 0.866 | 0.902 | 0.865 | 1.02 | 0.943 | 0.879 | 0.908 | 0.733 | 0.946 | 0.176 | 0.685 | 0.881
